No end group written: not given here.
Key:
[1] = tested on: P.aeruginosa ATCC 27853; experiment: Colony-forming unit (CFU) assay of antibacterial activity with NaCl dependence; assay type: cell-based; conditions: for antibacterial activity compared to wild-type hBD3 / antibacterial activity at 200 mM NaCl: 200 mM NaCl; for antibacterial activity, inhibition by NaCl: 50 mM NaCl; for antibacterial activity at 200 mM NaCl: p<0.001 versus hBD3 in the same conditions
Description: (§1) Colony-forming unit (CFU) assay of the antibacterial activity of the peptides against P.aeruginosa ATCC (American Type Culture Collection, Manassas, VA, USA) 27853, Enterococcus faecalis ATCC 29212 and Escherichia coli ATCC 25922 was performed. The strains were grown in aerobic conditions in tryptic soy broth (Difco Laboratories, Detroit, MI, USA) at 37°C. Cells from exponential-phase cultures were centrifuged, washed and suspended to a density of 1 x 10^5 CFU/mL in sterile 10 mM potassium phosphate buffer, pH 7.4, and incubated in the presence of the peptides. The incubation time was 2 h at 37°C. […] For salt dependence assay, NaCl in a range of concentrations potentially present in the airway surface fluid of normal subjects and CF patients (33), i.e., 0, 50, 100 and 200 mM NaCl, were included in the incubation buffer. The cells were then diluted serially in the same buffer, spread on tryptone-yeast (Difco Laboratories) plates and the colonies were counted after 18 h at 37°C. Each assay was performed in triplicate. Bactericidal activity (mean and SD of three assays) is expressed as the ratio between colonies counted and the number of colonies on a control plate.

[2] = tested on: Escherichia coli ATCC 25922; experiment: as above; assay type: cell-based; conditions: for antibacterial activity, inhibition by NaCl: 50 mM NaCl; for antibacterial activity at 200 mM NaCl: p<0.001 versus hBD3 in the same conditions
Description: as §1

[3] = tested on: Enterococcus faecalis ATCC 29212; experiment: as above; assay type: cell-based; conditions: for antibacterial activity, inhibition by NaCl: 50 mM NaCl; for antibacterial activity at 200 mM NaCl: p<0.001 versus hBD3 in the same conditions
Description: as §1

[4] = tested on: monocytes; experiment: Chemotaxis assay (leukocyte migration, calcein fluorescence); assay type: cell-based, human; conditions: for chemotactic activity compared to wild-type hBD1: peptide 1.25 µM
Description: (§2) Preparation of leukocytes-Monocytes and neutrophils were isolated as described in the StemSep Cell Technical Manual (Stem Cell Technologies, Vancouver, Canada). Briefly, to obtain neutrophils, buffy coats were diluted 1:20 in NH4Cl supplemented with 2 mM EDTA and incubated on ice for 20 min. Cell suspensions were centrifuged for 10 min at 600 X g at room temperature with the brake off and washed three times with phosphate buffered saline (PBS) supplemented with 2% foetal bovine serum and 2 mM EDTA. Cell viability was assessed by analysis of light scatter properties, and cell count was performed using a logical gate strategy based on Trucount tubes (Becton-Dickinson, San Jose, CA, USA). Neutrophils were purified from lysed buffy coats using StemSep negative selection system. To this purpose, 100x10^6 mononuclear cells from lysed buffy coats were incubated with 100 µL of custom antibody cocktail for human granulocytes enrichment (Stem Cell Technologies) for 45 min on ice. In addition, cell suspensions were incubated with 60 µL of magnetic colloid for 30 minutes on ice. Finally, the samples were run through a 0.3-inch column matrix in a negative selection system in which the unwanted cells were immunomagnetically labelled and bound to the magnetic column. Neutrophils, after the separation, were collected in the column flowthrough without antibody bound to their surface. In order to obtain monocytes, human buffy coats were layered over a Ficoll-Paque density gradient and spun at 600 X g for 30 min with the brake off. The mononuclear cell-rich fractions were washed three times with PBS supplemented with 2% foetal bovine serum (FBS) and 2 mM EDTA. Cell viability was assessed by analysis of light scatter properties, and cell count was performed using a logical gate strategy based on Trucount tubes (Becton-Dickinson). A custom antibody cocktail for human monocyte enrichment (Stem Cells Technologies) was used for immunomagnetic negative selection of monocytes. Mononuclear cells were incubated as above described for neutrophils. Both neutrophils and monocytes were resuspended in 5.0 mL of RPMI-1640 (Sigma-Aldrich, St Louis, MO, USA) without phenol red containing 10% heat-treated FBS. Calcein AM (Molecular Probes, Eugene, OR, USA) was added to the cell suspensions (5.0 mL) at a concentration of 5 µg/mL and the cells were incubated for 30 min at 37°C. Cell suspensions were washed twice with PBS and then resuspended in RPMI-FBS to the desired concentration.
(§3) Measurement of leukocytes migration-The chemotaxis assay of monocytes and neutrophils (90-95% of purity) was performed in 96-well disposable chemotaxis chambers (Neuroprobe, Gaithersburg, MD, USA) using polyvinyl-pyrrolidone-free polycarbonate membranes with an […] pore size for monocytes and with a […] pore size for neutrophils. Chemotaxis was measured by fluorescence detection, using the calcein fluorescence signal. The fluorescence was read in a microplate fluorescence reader (Victor 3 1420 Multilabel Counter, Perkin Elmer) with excitation/emission wave-length settings of 485/530 nm. We calculated the migration index as the ratio between the sample mean fluorescence (after subtraction of the negative control mean fluorescence)/positive control mean fluorescence. Each assay was performed in quadruplicate.

[5] = tested on: neutrophils; experiment: as above; assay type: cell-based, human; conditions: for chemotactic activity compared to wild-type hBD1: peptide 1.25 µM
Description: as §2, §3

[6] = tested on: HSV-1; experiment: HSV-1 infectivity plaque assay on Vero cell monolayers (co-exposure, virus pre-treatment, cell pre-exposure); assay type: cell-based; conditions: for % of infectivity: mean and SD of 3 replicates; for inhibition of HSV infectivity: peptide 50 µM, reduced form
Description: Vero cells were grown in Dulbecco's modified Eagle's medium (DMEM) supplemented with 10% foetal calf serum. HSV-1 carrying a IacZ gene driven by the cytomegalovirus (CMV) IE-1 promoter to express beta-galactosidase was propagated as described (33). Peptides were dissolved in DMEM with serum and used at different concentrations. All experiments were conducted in parallel with scrambled peptides and no-peptide controls. […] Non-penetrated viruses were inactivated by citrate buffer at pH 3.0 after the 45 min incubation with cells at 37°C. The cells were then incubated for 48 h at 37°C in DMEM supplemented with carboxymethylcellulose (CMC). Monolayers were fixed, stained with 5-bromo-4-chloro-3-indolyl-beta-D-galactopyranoside (X-gal) and plaque numbers were scored. Experiments were performed in triplicate and the percentage of inhibition was calculated with respect to no-peptide control experiments. ii) For "virus pre-treatment" experiments, approximately 2 x 10^4 plaque forming units (PFU) of HSV-1 were incubated in the presence of 20 µM of peptides for 45 min at 37°C, then titrated on Vero cell monolayers. iii) For "cell pre-exposure" experiments, Vero cells were incubated with 20 µM of peptides for 30 min at 4°C. Peptides were removed, and cells were washed with phosphate-buffered saline before being infected with serial dilutions of HSV-1 and incubated for 45 min at 37°C.
Monolayers were exposed to different concentrations (10, 50, 100, 250 and 500 µM) of each peptide for 24 h, and cell viability was evaluated with the LDH assay. There was no significant difference between the viability of cells exposed to the peptides and that of cells exposed to control (data not shown). Thus, we evaluated the antiviral activity of wild type peptides and their analogs in: co-exposure experiments (cell + virus + peptide at zero time); virus pre-treatment (virus + peptide incubation before cell infection); and cell pre-exposure (cell + peptide incubation before virus infection). This would allow to evaluate if, and in which phase, the peptides could inhibit the virus infectivity.
For co-exposure experiments, we incubated the peptides on the monolayers of Vero cells together with the virus inoculum for 45 min before low pH treatment. The reduced form of wild-type hBD1 and hBD3 and analogs 1C, 1 N, 3C, 3N were used in all subsequent experiments. […] No control (peptide excluded) inhibited HSV-1 infectivity under similar experimental conditions.

[7] = 0 to 200 mM NaCl, pattern as against P. aeruginosa
[8] = cell pre-exposure, peptide 20 µM
[9] = virus pre-incubation, peptide 20 µM
[10] = NaCl between 100 and 150 mM, p<0.001
[11] = 200 mM NaCl compared to absence of salt
[12] = peptide 12.5 µM, 200 mM NaCl, p<0.01

Substance	chemotactic activity compared to wild-type hBD1 [4]	chemotactic activity compared to wild-type hBD1 [5]	% of infectivity [6, 8]	% of infectivity ([6]; co-exposure, peptide 20 µM)	inhibition of HSV infectivity ([6]; co-exposure)	% of infectivity [6, 9]	antibacterial activity, inhibition by NaCl [1]	antibacterial activity, inhibition by NaCl [2]	antibacterial activity, inhibition by NaCl [3]	antibacterial activity at 200 mM NaCl [1]	antibacterial activity at 200 mM NaCl ([2]; 200 mM NaCl)	antibacterial activity at 200 mM NaCl ([3]; 200 mM NaCl)	further results
DHYNCVSSGGQCLYSACPIFTKIQGTCYRGKRKCCRRKK [1C]	significantly lower	comparable to that of hBD1	24.1±2.2%	57.6±1.8 %	70%	40.3±2.6%							antibacterial activity compared to wild-type hBD3 ([1]; peptide 2.5 and 12.5 µM, p<0.001): significantly higher; antibacterial activity compared to wild-type hBD3, pattern over NaCl concentrations [2, 7]: same pattern of activity; antibacterial activity compared to wild-type hBD3, pattern over NaCl concentrations [3, 7]: same pattern of activity; antiviral activity in words ([6]; cell pre-exposure treatment, peptide 20 µM): active
GIINTLQKYYCRVRGGRCAVLSCLPKEEQIGKCSTRGAKCCK [3C]			50.3±3.4 %	61.7±3.4 %		32.4±4.3%							
DHYNCVSSGGQCLYSACPIFTKIQGTCYRGKAKCCK [hBD1 wt, wild type human beta-defensin 1, reference compound]			71.3±1.2 %	74.7±2.4 %		65.3±3.8 %	inhibited already by 50 mM NaCl	inhibited already by 50 mM NaCl	inhibited already by 50 mM NaCl				chemotactic activity, effect of NaCl ([4]; 200 mM NaCl): comparable to that obtained at 100 mM NaCl; chemotactic activity, effect of NaCl [4, 10]: significantly increased; chemotactic activity, effect of NaCl ([5]; NaCl concentrations up to 200 mM): did not significantly affect
GIINTLQKYYCRVRGGRCAVLSCLPKEEQIGKCSTRGRKCCRRKK-OH (cysteines drawn unpaired) [hBD3 wt, reference compound]	significantly higher	significantly lower activity	14.5±2.3%	23.4±2.5%	100%	45±1.5%							antibacterial activity, effect of NaCl ([1]; peptide 2.5 µM, 50 mM NaCl versus 0 mM NaCl): unaffected; antibacterial activity, effect of NaCl ([1]; peptide 2.5 µM, 100 mM NaCl versus 0 mM NaCl, p<0.01): slightly inhibited; antibacterial activity, effect of NaCl ([1]; peptide 2.5 µM, 200 mM NaCl versus 0 mM NaCl, p<0.001): greatly inhibited; antibacterial activity, effect of NaCl ([1]; peptide 12.5 µM, 200 mM NaCl versus 0 mM NaCl, p<0.001): strongly inhibited; antibacterial activity, effect of NaCl [2, 11]: significantly inhibited; antibacterial activity, effect of NaCl [3, 11]: significantly inhibited; chemotactic activity, effect of NaCl ([4]; 200 mM NaCl): comparable to that obtained at 100 mM NaCl; chemotactic activity, effect of NaCl [4, 10]: significantly increased; chemotactic activity, effect of NaCl ([5]; NaCl from 100 to 150 mM, p<0.001): significantly reduced
GIINTLQKYYCRVRGGRCAVLSCPIFTKIQGTCSTRGAKCCK [3CI]	significantly lower	significantly higher					inhibited already by 50 mM NaCl	inhibited already by 50 mM NaCl	inhibited already by 50 mM NaCl				antibacterial activity compared to wild-type hBD3 ([1]; peptide 12.5 µM, p<0.01): significantly higher; antibacterial activity compared to wild-type hBD3 [2, 12]: significantly higher; antibacterial activity compared to wild-type hBD3 [3, 12]: significantly higher
DHYNCVSSGGQCLYSACLPKEEQIGKCYRGKRKCCRRKK [1CI]	significantly lower	significantly lower activity								displayed antibacterial activity	displayed antibacterial activity	displayed antibacterial activity	
GIINTLQKYYCRVRGGRCAVLSCPIFTKIQGTCSTRGRKCCRRKK [3I]	comparable to that of wild-type hBD1									displayed antibacterial activity	displayed antibacterial activity	displayed antibacterial activity	
QKYYCRVRGGRCAVLSCLPKEEQIGKCSTRGRKCCRRKK [3N]		comparable to that of hBD1	13.4±4.2%	20.4±2.4%	90%	8.5±2.1 %				displayed antibacterial activity	displayed antibacterial activity	displayed antibacterial activity	
DHYNCVSSGGQCLYSACLPKEEQIGKCYRGKAKCCK [1I]		significantly lower activity					inhibited already by 50 mM NaCl	inhibited already by 50 mM NaCl	inhibited already by 50 mM NaCl				
